Test results taken from patent US12673945B2, “3-((8-((1H-pyrazol-4-yl)amino)imidazo[1,2-a]pyridin-3-yl)ethinyl)-n-phenylbenzamide derivative, method for preparing same, and pharmaceutical composition containing same as active ingredient for prevention or treatment of cancer” (DAEGU-GYEONGBUK MEDICAL INNOVATION FOUNDATION, priority 2020, dated 2026).

Columns and labels:
Experiment in all cases: scanMAX Kinase panel (DiscoverX)
Assay type in all cases: binding
[1] = molecular target: T1, ABL1(F317L)-phosphorylated (Homo sapiens, UniProt P00519, F317L); conditions: read-out: % Cont @ 1 uM
T1 construct: purchased DiscoverX
Procedure: (§1) Among the example compounds of the present invention, the enzyme (kinase) selectivity of the selected compounds of Examples 1 and 4 was measured by requesting DiscoverX. At this time, the experiment was performed using a panel for scanMAX™ Kinase. The concentration of the drug treated to the enzyme was 1 μM in DMSO, and the percentage control (% control) was determined by the method shown in Equation 1 below. (Example Compound−Positive Control)/(Negative Control−Positive control)×100 [Equation 1]

[2] = molecular target: T2, ABL1(H396P)-nonphosphorylated (Homo sapiens, UniProt P00519, H396P); conditions: read-out: % Cont @ 1 uM
T2 construct: purchased DiscoverX
Procedure: as §1

[3] = molecular target: T3, ABL1(H396P)-phosphorylated (Homo sapiens, UniProt P00519, H396P); conditions: read-out: % Cont @ 1 uM
T3 construct: purchased DiscoverX
Procedure: as §1

[4] = molecular target: T4, ABL1(Q252H)-phosphorylated (Homo sapiens, UniProt P00519, Q252H); conditions: read-out: % Cont @ 1 uM
T4 construct: purchased DiscoverX
Procedure: as §1

[5] = molecular target: T5, ABL1(T315I)-nonphosphorylated (Homo sapiens, UniProt P00519, T315I); conditions: read-out: % Cont @ 1 uM
T5 construct: purchased DiscoverX
Procedure: as §1

[6] = molecular target: T6, ABL1(Y253F)-phosphorylated (Homo sapiens, UniProt P00519, Y253F); conditions: read-out: % Cont @ 1 uM
T6 construct: purchased DiscoverX scanMAX Kinase panel
Procedure: as §1

ABL1-phosphorylated = molecular target: T7, ABL1-phosphorylated (Homo sapiens, UniProt P00519); conditions: read-out: % Cont @ 1 uM
T7 construct: purchased DiscoverX scanMAX Kinase panel
Procedure: as §1

BTK = molecular target: T8, BTK (Homo sapiens, UniProt Q06187)
T8 construct: purchased DiscoverX scanMAX Kinase panel
Procedure: as §1

CDC2L1 = molecular target: T9, CDC2L1 (Homo sapiens, UniProt P21127); conditions: read-out: % Cont @ 1 uM
T9 construct: purchased DiscoverX scanMAX Kinase panel
T9 sequence (P21127 whole entry): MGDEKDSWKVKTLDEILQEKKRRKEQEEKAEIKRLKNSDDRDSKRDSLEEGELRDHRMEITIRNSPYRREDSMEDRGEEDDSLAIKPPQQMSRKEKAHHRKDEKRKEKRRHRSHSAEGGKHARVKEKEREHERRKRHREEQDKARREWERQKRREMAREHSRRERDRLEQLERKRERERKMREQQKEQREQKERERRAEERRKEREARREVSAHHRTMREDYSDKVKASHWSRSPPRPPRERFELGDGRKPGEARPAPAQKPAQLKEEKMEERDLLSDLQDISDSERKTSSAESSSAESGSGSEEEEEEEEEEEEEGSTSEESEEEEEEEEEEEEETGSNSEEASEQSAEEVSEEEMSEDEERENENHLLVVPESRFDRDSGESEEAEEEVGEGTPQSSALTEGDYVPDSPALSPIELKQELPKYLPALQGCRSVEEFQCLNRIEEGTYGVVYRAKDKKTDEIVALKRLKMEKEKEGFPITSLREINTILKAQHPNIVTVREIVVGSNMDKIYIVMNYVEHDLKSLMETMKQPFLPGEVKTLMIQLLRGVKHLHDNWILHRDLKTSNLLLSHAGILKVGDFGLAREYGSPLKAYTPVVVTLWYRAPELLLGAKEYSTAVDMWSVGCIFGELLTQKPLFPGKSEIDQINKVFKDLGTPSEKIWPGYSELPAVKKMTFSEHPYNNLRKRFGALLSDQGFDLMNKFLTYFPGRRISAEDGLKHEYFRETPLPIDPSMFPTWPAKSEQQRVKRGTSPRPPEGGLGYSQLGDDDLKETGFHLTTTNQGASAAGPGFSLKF
Procedure: as §1

CDC2L2 = molecular target: T10, CDC2L2 (Homo sapiens, UniProt Q9UQ88); conditions: read-out: % Cont @ 1 uM
T10 construct: purchased DiscoverX scanMAX Kinase panel
Procedure: as §1

CIT = molecular target: T11, CIT (Homo sapiens, UniProt O14578)
T11 construct: purchased DiscoverX scanMAX Kinase panel
Procedure: as §1

CSF1R = molecular target: T12, CSF1R (Homo sapiens, UniProt P07333); conditions: read-out: % Cont @ 1 uM
T12 construct: purchased DiscoverX scanMAX Kinase panel
T12 sequence (P07333 20-972): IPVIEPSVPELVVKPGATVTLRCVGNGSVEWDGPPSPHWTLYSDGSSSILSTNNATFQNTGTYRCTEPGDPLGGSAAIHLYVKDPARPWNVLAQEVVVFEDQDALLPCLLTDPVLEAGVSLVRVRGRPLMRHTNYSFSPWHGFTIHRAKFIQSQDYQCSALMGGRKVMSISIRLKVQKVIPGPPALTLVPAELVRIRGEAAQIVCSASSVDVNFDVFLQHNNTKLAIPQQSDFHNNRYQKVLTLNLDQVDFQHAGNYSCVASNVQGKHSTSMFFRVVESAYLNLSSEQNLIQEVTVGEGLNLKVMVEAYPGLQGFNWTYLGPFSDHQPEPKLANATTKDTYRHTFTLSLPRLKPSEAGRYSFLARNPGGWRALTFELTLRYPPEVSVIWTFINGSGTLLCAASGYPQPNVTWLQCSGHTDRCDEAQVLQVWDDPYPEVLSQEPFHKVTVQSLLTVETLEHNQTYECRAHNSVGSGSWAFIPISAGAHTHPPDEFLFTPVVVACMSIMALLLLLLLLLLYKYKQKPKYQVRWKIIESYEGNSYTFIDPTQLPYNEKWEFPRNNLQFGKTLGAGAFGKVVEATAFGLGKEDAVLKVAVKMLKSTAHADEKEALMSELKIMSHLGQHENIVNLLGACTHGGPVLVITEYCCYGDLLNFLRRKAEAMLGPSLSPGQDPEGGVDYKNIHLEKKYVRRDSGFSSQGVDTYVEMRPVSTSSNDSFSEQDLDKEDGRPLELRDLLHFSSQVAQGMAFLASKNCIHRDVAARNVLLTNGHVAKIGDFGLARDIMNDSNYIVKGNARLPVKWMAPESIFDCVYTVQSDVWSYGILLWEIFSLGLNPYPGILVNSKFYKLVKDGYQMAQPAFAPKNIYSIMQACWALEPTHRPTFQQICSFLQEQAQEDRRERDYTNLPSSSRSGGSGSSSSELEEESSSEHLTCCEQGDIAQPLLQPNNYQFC
Procedure: as §1

EGFR(G719C) = molecular target: T13, EGFR(G719C) (Homo sapiens, UniProt P00533, G719C)
T13 construct: purchased DiscoverX scanMAX Kinase panel
Procedure: as §1

EGFR(G719S) = molecular target: T14, EGFR(G719S) (Homo sapiens, UniProt P00533, G719S)
T14 construct: purchased DiscoverX scanMAX Kinase panel
Procedure: as §1

EGFR(L861Q) = molecular target: T15, EGFR(L861Q) (Homo sapiens, UniProt P00533, L861Q)
T15 construct: purchased DiscoverX scanMAX Kinase panel
Procedure: as §1

EPHA8 = molecular target: T16, EPHA8 (Homo sapiens, UniProt P29322); conditions: read-out: % Cont @ 1 uM
T16 construct: purchased DiscoverX scanMAX Kinase panel
Procedure: as §1

FGFR3(G697C) = molecular target: T17, FGFR3(G697C) (Homo sapiens, UniProt P22607, G697C); conditions: read-out: % Cont @ 1 uM
T17 construct: purchased DiscoverX scanMAX Kinase panel
Procedure: as §1

FLT3(ITD, F691L) = tested on: FLT3(ITD, F691L)
Procedure: as §1

FLT3(N841I) = molecular target: T18, FLT3(N841I) (Homo sapiens, UniProt P36888, N841I); conditions: read-out: % Cont @ 1 uM
T18 construct: purchased DiscoverX scanMAX Kinase panel
Procedure: as §1

FRK = molecular target: T19, FRK (Homo sapiens, UniProt P42685); conditions: read-out: % Cont @ 1 uM
T19 construct: purchased DiscoverX scanMAX Kinase panel
Procedure: as §1

GAK = molecular target: T20, GAK (Homo sapiens, UniProt O14976); conditions: read-out: % Cont @ 1 uM
T20 construct: purchased DiscoverX scanMAX Kinase panel
Procedure: as §1

GCN2(Kin.Dom.2, S808G) = molecular target: T21, GCN2(Kin.Dom.2, S808G) (Homo sapiens, UniProt Q9P2K8, S808G); conditions: read-out: % Cont @ 1 uM
T21 construct: GCN2(Kin.Dom.2,S808G); purchased DiscoverX scanMAX Kinase panel
T21 sequence (Q9P2K8 590-1001 S808G limits assumed): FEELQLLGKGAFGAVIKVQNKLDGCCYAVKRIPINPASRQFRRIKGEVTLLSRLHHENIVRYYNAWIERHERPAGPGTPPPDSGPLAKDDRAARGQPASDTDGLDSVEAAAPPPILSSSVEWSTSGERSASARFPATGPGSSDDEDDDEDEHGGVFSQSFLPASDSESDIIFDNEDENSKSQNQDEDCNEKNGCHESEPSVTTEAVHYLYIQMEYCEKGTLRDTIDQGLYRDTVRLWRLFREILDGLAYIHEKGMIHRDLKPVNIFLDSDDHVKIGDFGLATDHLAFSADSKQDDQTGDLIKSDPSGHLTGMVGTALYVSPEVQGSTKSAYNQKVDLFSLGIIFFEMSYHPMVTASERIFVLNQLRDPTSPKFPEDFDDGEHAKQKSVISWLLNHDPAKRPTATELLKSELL
Procedure: as §1

IRAK4 = molecular target: T22, IRAK4 (Homo sapiens, UniProt Q9NWZ3)
T22 construct: purchased DiscoverX scanMAX Kinase panel
T22 sequence (Q9NWZ3 whole entry): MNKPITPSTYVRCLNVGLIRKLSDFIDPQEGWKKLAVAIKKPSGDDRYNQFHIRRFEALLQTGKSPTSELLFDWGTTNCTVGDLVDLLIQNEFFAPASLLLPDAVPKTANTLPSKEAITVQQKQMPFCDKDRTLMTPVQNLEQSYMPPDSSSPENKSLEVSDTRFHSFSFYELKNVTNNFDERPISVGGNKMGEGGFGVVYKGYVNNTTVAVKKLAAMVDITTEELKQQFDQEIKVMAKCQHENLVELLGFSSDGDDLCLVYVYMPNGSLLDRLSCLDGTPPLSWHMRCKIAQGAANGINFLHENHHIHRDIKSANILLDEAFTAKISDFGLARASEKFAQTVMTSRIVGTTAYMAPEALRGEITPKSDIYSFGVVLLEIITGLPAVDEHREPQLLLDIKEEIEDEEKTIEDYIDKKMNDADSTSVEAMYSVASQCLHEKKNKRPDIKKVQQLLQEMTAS
Procedure: as §1

LRRK2 = molecular target: T23, LRRK2 (Homo sapiens, UniProt Q5S007); conditions: read-out: % Cont @ 1 uM
T23 construct: purchased DiscoverX scanMAX Kinase panel
Procedure: as §1

MEK5 = molecular target: T24, MEK5 (Homo sapiens, UniProt Q13163); conditions: read-out: % Cont @ 1 uM
T24 construct: purchased DiscoverX scanMAX Kinase panel
Procedure: as §1

MERTK = molecular target: T25, MERTK (Homo sapiens, UniProt Q12866); conditions: read-out: % Cont @ 1 uM
T25 construct: purchased DiscoverX scanMAX Kinase panel
Procedure: as §1

MKNK2 = molecular target: T26, MKNK2 (Homo sapiens, UniProt Q9HBH9); conditions: read-out: % Cont @ 1 uM
T26 construct: purchased DiscoverX scanMAX Kinase panel
Procedure: as §1

NEK1 = molecular target: T27, NEK1 (Homo sapiens, UniProt Q96PY6); conditions: read-out: % Cont @ 1 uM
T27 construct: purchased DiscoverX scanMAX Kinase panel
Procedure: as §1

PAK3 = molecular target: T28, PAK3 (Homo sapiens, UniProt O75914); conditions: read-out: % Cont @ 1 uM
T28 construct: purchased DiscoverX scanMAX Kinase panel
Procedure: as §1

PCTK2 = molecular target: T29, PCTK2 (Homo sapiens, UniProt Q00537); conditions: read-out: % Cont @ 1 uM
T29 construct: purchased DiscoverX scanMAX Kinase panel
Procedure: as §1

SRC = molecular target: T30, SRC (Homo sapiens, UniProt P12931); conditions: read-out: % Cont @ 1 uM
T30 construct: purchased DiscoverX scanMAX Kinase panel
Procedure: as §1

STK35 = molecular target: T31, STK35 (Homo sapiens, UniProt Q8TDR2); conditions: read-out: % Cont @ 1 uM
T31 construct: purchased DiscoverX scanMAX Kinase panel
Procedure: as §1

TAOK1 = molecular target: T32, TAOK1 (Homo sapiens, UniProt Q7L7X3); conditions: read-out: % Cont @ 1 uM
T32 construct: purchased DiscoverX scanMAX Kinase panel
Procedure: as §1

TEC = molecular target: T33, TEC (Homo sapiens, UniProt P42680); conditions: read-out: % Cont @ 1 uM
T33 construct: purchased DiscoverX scanMAX Kinase panel
Procedure: as §1

TNK1 = molecular target: T34, TNK1 (Homo sapiens, UniProt Q13470); conditions: read-out: % Cont @ 1 uM
T34 construct: purchased DiscoverX scanMAX Kinase panel
T34 sequence (Q13470 whole entry): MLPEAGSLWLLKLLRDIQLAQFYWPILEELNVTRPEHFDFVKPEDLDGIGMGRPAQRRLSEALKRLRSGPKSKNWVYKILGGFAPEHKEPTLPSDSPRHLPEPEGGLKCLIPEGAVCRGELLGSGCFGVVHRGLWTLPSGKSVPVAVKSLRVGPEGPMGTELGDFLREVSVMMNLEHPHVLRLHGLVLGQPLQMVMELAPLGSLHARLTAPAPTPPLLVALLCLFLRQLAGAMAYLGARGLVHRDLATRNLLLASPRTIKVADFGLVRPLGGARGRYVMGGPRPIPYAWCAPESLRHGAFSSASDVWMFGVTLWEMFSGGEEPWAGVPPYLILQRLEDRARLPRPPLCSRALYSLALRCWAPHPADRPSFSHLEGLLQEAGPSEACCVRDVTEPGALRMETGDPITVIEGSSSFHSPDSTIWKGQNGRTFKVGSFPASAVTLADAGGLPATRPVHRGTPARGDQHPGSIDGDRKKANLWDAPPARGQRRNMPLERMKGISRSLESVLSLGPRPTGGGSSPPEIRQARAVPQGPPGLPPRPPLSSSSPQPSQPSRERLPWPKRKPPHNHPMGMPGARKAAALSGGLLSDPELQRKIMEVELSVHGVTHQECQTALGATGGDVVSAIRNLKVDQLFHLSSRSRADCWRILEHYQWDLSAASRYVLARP
Procedure: as §1

TNK2 = molecular target: T35, TNK2 (Homo sapiens, UniProt Q07912); conditions: read-out: % Cont @ 1 uM
T35 construct: purchased DiscoverX scanMAX Kinase panel
Procedure: as §1

TNNI3K = molecular target: T36, TNNI3K (Homo sapiens, UniProt Q59H18); conditions: read-out: % Cont @ 1 uM
T36 construct: purchased DiscoverX scanMAX Kinase panel
T36 sequence (Q59H18 whole entry): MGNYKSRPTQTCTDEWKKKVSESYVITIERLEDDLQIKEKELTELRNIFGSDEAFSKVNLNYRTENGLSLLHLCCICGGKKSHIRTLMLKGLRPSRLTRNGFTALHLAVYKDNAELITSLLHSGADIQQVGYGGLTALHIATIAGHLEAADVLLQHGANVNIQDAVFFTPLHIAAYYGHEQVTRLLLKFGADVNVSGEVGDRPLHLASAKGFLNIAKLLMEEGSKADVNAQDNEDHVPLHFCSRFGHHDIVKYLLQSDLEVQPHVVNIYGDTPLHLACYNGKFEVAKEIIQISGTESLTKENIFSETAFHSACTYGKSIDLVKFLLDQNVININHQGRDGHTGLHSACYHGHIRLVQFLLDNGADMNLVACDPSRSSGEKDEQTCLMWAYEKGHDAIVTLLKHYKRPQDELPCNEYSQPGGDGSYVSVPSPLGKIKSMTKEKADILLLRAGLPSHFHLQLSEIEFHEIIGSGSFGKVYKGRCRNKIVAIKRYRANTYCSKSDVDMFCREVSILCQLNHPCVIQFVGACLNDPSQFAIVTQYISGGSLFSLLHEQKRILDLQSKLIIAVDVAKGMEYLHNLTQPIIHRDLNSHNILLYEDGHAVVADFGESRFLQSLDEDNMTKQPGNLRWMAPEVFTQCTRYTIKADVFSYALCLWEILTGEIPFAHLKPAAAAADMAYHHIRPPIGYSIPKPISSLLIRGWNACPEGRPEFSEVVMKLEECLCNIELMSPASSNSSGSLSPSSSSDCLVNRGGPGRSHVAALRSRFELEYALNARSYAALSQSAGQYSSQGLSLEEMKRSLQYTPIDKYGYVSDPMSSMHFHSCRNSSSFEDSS
Procedure: as §1

TRKA = molecular target: T37, TRKA (Homo sapiens, UniProt P04629); conditions: read-out: % Cont @ 1 uM
T37 construct: purchased DiscoverX scanMAX Kinase panel
T37 sequence (P04629 33-796): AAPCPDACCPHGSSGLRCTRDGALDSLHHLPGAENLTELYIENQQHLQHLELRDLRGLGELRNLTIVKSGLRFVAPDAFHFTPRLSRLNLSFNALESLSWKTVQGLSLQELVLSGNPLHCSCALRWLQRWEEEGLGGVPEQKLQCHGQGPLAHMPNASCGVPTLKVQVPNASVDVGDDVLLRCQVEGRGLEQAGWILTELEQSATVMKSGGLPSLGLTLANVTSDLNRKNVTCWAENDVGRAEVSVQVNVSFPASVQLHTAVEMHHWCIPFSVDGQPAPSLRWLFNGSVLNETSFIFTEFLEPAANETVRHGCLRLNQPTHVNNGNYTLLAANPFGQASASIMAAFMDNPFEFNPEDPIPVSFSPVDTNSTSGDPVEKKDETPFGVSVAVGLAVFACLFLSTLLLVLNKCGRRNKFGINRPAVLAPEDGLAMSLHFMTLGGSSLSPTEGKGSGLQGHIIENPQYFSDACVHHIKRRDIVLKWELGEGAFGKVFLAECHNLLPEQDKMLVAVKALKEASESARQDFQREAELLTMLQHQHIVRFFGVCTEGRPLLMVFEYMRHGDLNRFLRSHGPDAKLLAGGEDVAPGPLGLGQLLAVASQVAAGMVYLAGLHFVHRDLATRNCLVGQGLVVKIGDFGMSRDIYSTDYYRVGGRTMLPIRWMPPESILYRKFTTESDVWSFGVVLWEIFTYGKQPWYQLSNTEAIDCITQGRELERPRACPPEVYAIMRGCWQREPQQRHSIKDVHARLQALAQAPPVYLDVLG
Procedure: as §1

`Cc1cn(-c2cc(NC(=O)c3cc(C#Cc4cnc5c(Nc6cnn(C)c6)cccn45)c(C)cc3F)cc(C(C)(C)C#N)c2)cn1` [Example 1, N-(3-(2-cyanopropane-2-yl)-5-(4-methyl-1H-imidazol-1-yl)phenyl)-2-fluoro-4-methyl-5-((8-((1-methyl-1H-pyrazol-4-yl)amino)imidazo[1,2-a]pyridin-3-yl)ethynyl)benzamide] showed a remaining binding at 1 µM [1] of 0%, a remaining binding at 1 µM [2] of 1.2% and a remaining binding at 1 µM [3] of 0.55%. For the same molecule, the remaining binding at 1 µM [4] was 1.3%, the remaining binding at 1 µM [5] was 8.9% and the remaining binding at 1 µM [6] was 0.15%. The remaining binding at 1 µM (ABL1-phosphorylated) was 0.45%, the “% Cont @ 1 uM” value (BTK) was 2.2% and the remaining binding at 1 µM (CDC2L1) was 27%. The remaining binding at 1 µM (CDC2L2) was 24%, the “% Cont @ 1 uM” value (CIT) was 0.1% and the remaining binding at 1 µM (CSF1R) was 0.2%. The “% Cont @ 1 uM” value (EGFR(G719C)) was 5.2%, the “% Cont @ 1 uM” value (EGFR(G719S)) was 16% and the “% Cont @ 1 uM” value (EGFR(L861Q)) was 6.7%. The remaining binding at 1 µM (EPHA8) was 0.1%, the remaining binding at 1 µM (FGFR3(G697C)) was 7.5% and the “% Cont @ 1 uM” value (FLT3(ITD, F691L)) was 5.1%. It also gave a remaining binding at 1 µM (FLT3(N841I)) of 0%, a remaining binding at 1 µM (FRK) of 1.6% and a remaining binding at 1 µM (GAK) of 25%. For the same molecule, the remaining binding at 1 µM (GCN2(Kin.Dom.2, S808G)) was 17%, the “% Cont @ 1 uM” value (IRAK4) was 34% and the remaining binding at 1 µM (LRRK2) was 27%. It also gave a remaining binding at 1 µM (MEK5) of 0%, a remaining binding at 1 µM (MERTK) of 6.1% and a remaining binding at 1 µM (MKNK2) of 0.7%. It also gave a remaining binding at 1 µM (NEK1) of 34%, a remaining binding at 1 µM (PAK3) of 7.1% and a remaining binding at 1 µM (PCTK2) of 23%. The remaining binding at 1 µM (SRC) was 0.1%, the remaining binding at 1 µM (STK35) was 10% and the remaining binding at 1 µM (TAOK1) was 11%. It also gave a remaining binding at 1 µM (TEC) of 1.3%, a remaining binding at 1 µM (TNK1) of 30% and a remaining binding at 1 µM (TNK2) of 31%. The remaining binding at 1 µM (TNNI3K) was 1.8% and the remaining binding at 1 µM (TRKA) was 0.6%.

`Cc1cn(-c2cc(NC(=O)c3cc(C#Cc4cnc5c(Nc6cnn(C)c6)cccn45)c(C)cc3F)cc(C(F)(F)F)c2)cn1` [Example 4, 2-fluoro-4-methyl-N-(3-(4-methyl-1H-imidazol-1-yl)-5-(trifluoromethyl)phenyl)-5-((8-((1-methyl-1H-pyrazol-4-yl)amino)imidazo[1,2-a]pyridin-3-yl)ethynyl)benzamide] showed a remaining binding at 1 µM [1] of 1.2%, a remaining binding at 1 µM [2] of 2.9% and a remaining binding at 1 µM [3] of 9.6%. It also gave a remaining binding at 1 µM [4] of 14%, a remaining binding at 1 µM [5] of 10% and a remaining binding at 1 µM [6] of 5.9%. The remaining binding at 1 µM (ABL1-phosphorylated) was 8.4%, the “% Cont @ 1 uM” value (BTK) was 38% and the remaining binding at 1 µM (CDC2L1) was 79%. For the same molecule, the remaining binding at 1 µM (CDC2L2) was 83%, the “% Cont @ 1 uM” value (CIT) was 0.45% and the remaining binding at 1 µM (CSF1R) was 2.5%. For the same molecule, the “% Cont @ 1 uM” value (EGFR(G719C)) was 56%, the “% Cont @ 1 uM” value (EGFR(G719S)) was 65% and the “% Cont @ 1 uM” value (EGFR(L861Q)) was 53%. The remaining binding at 1 µM (EPHA8) was 1.6%, the remaining binding at 1 µM (FGFR3(G697C)) was 90% and the “% Cont @ 1 uM” value (FLT3(ITD, F691L)) was 37%. For the same molecule, the remaining binding at 1 µM (FLT3(N841I)) was 0%, the remaining binding at 1 µM (FRK) was 26% and the remaining binding at 1 µM (GAK) was 80%. For the same molecule, the remaining binding at 1 µM (GCN2(Kin.Dom.2, S808G)) was 64%, the “% Cont @ 1 uM” value (IRAK4) was 89% and the remaining binding at 1 µM (LRRK2) was 92%. For the same molecule, the remaining binding at 1 µM (MEK5) was 1.2%, the remaining binding at 1 µM (MERTK) was 3.3% and the remaining binding at 1 µM (MKNK2) was 96%. It also gave a remaining binding at 1 µM (NEK1) of 100%, a remaining binding at 1 µM (PAK3) of 10% and a remaining binding at 1 µM (PCTK2) of 85%. It also gave a remaining binding at 1 µM (SRC) of 1.4%, a remaining binding at 1 µM (STK35) of 94% and a remaining binding at 1 µM (TAOK1) of 96%. For the same molecule, the remaining binding at 1 µM (TEC) was 46%, the remaining binding at 1 µM (TNK1) was 31% and the remaining binding at 1 µM (TNK2) was 91%. It also gave a remaining binding at 1 µM (TNNI3K) of 41% and a remaining binding at 1 µM (TRKA) of 2.6%.
